Results on 18 molecules are retold here after US12612410B2 (CHILDREN'S HOSPITAL MEDICAL CENTER, priority 2020, dated 2026).

One assay concerns the target T1, IRAK4 (Homo sapiens, UniProt Q9NWZ3).
T1 sequence (Q9NWZ3 1-460): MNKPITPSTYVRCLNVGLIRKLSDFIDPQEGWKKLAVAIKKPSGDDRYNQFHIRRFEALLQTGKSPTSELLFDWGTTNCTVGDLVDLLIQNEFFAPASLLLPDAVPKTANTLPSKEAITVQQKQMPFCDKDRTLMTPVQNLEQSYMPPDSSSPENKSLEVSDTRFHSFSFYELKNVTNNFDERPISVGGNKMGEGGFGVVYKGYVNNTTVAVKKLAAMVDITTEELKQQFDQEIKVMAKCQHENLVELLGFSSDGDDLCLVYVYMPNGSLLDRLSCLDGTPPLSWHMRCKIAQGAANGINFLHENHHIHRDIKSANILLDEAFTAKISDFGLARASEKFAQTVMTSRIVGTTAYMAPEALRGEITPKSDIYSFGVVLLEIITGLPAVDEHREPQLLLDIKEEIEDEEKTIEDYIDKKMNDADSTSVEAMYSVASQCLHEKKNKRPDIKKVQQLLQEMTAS
Description: Reaction Biology NanoBRET target engagement assay, IRAK4. Type of assay: cell-based. The settings on record: transfected HEK-293 cells. From the text: (§1) The NanoBRET assay measures kinase engagement in real time in the context of the intact cell. Unlike the previously described biochemical kinase assay methodologies in Examples 26-27, the NanoBRET assay measures the binding and activity characteristics under equilibrium conditions using full-length kinases in the presence of cellular concentrations of ATP in live, uncompromised cells. As such, the assay provides a more relevant assessment of kinase potency and selectivity that would be expected to be observed in the native cellular environment, where potency is often considerably lower than that observed in the isolated biochemical assays (Vasta, J. D. et al., (2018) Cell Chem. Biol. 25, 206-214). The assay uses a Kinase-NanoLuc® fusion vector expressing a kinase protein to which a luciferase tag has been added, a cell-permeant fluorescent NanoBRET™ tracer, a NanoLuc® substrate, and an extracellular NanoLuc® inhibitor. Upon expression of the luciferase-tagged kinase, cells will produce a strong BRET signal only in the presence of the NanoBRET™ tracer. The extracellular NanoLuc® inhibitor ensures that the BRET signal observed emanates only from live cells. Because the BRET signal has tight distance constraints, addition of the test compound will decrease the BRET signal if the compound competes with the NanoBRET™ tracer for binding to the kinase domain. Under the appropriate tracer conditions established by the manufacturer, quantitative intracellular affinity and relative potency can then be determined using Mass Action model equations.
(§2) HEK-293 cells were purchased from ATCC. FuGENEHD Transfection Reagent, Kinase-NanoLucfusion plasmids, Transfection Carrier DNA, NanoBRETTracers and dilution buffer, NanoBRETNano-Glo Substrate, Extracellular NanoLucInhibitor were obtained from Promega.
(§3) Assays were conducted following Promega assay protocol with some modifications. HEK-293 Cells were transiently transfected with Kinase-NanoLucFusion Vector DNA by FuGENEHD Transfection Reagent. Testing compounds were delivered into 384 well assay plate by Echo 550 (Labcytelnc, Sunnyvale, CA). Transfected cells were harvested and mixed with NanoBRETTracer Reagent and dispensed into 384 well plates and incubated at 37° C. in 5% CO2 cell culture incubator for 1 hour. The NanoBRETNano-Glo Substrate plus Extracellular NanoLucInhibitor Solution were added into the wells of the assay plate and incubated for 2-3 minutes at room temperature. The donor emission wavelength (460 nm) and acceptor emission wavelength (600 nm) were measured in the EnVisionplate reader. The BRET Ratios were calculated. BRET Ratio=[(Acceptor sample÷Donor sample)−(Acceptor no-tracer control÷Donor no-tracer control)]. The IC50 values of compounds were calculated with Prism GraphPad program.
(§4) NanoBRET™ Target Engagement Assay Protocol
(§5) 1. Transient Transfection of HEK-293 Cells NanoLuc® Fusion Vector DNA
(§6) • 1). Cultivate HEK-293 cells (70-80% confluence) appropriately prior to assay. Trypsinize and collect HEK-293 cells. • 2). Prepare lipid: DNA complexes as follows: • a. Prepare a […] solution of DNA in Opti-MEM without serum that consists of the following ratios of carrier DNA and DNA encoding NanoLuc® fusion. 9.0 µg/mL of Transfection Carrier DNA, […] of NanoLuc fusion vector DNA and 1 mL of Opti-MEM without phenol red. Mix thoroughly. • b. Add 30 l of FuGENE HD Transfection Reagent into each milliliter of DNA mixture to form lipid: DNA complex. • c. Mix by inversion 10 times. • d. Incubate at ambient temperature for 20 minutes to allow complexes to form. • 3). In a sterile, conical tube, mix 1 part of lipid: DNA complex with 20 parts of HEK-293 cells in suspension. Mix gently by inversion 5 times. • 4). Dispense cells+lipid: DNA complex into a sterile tissue culture dish and incubate for 22-24 hours. 2. Addition of Test Compounds (dry plate shooting)
(§7) Each test compound is delivered from the compound source plate to the wells of 384-well white NBS plate by Echo 550.
3. […]

For a further assay, the target named is T2, FLT3 (Homo sapiens, UniProt P36888).
T2 sequence (P36888 27-993): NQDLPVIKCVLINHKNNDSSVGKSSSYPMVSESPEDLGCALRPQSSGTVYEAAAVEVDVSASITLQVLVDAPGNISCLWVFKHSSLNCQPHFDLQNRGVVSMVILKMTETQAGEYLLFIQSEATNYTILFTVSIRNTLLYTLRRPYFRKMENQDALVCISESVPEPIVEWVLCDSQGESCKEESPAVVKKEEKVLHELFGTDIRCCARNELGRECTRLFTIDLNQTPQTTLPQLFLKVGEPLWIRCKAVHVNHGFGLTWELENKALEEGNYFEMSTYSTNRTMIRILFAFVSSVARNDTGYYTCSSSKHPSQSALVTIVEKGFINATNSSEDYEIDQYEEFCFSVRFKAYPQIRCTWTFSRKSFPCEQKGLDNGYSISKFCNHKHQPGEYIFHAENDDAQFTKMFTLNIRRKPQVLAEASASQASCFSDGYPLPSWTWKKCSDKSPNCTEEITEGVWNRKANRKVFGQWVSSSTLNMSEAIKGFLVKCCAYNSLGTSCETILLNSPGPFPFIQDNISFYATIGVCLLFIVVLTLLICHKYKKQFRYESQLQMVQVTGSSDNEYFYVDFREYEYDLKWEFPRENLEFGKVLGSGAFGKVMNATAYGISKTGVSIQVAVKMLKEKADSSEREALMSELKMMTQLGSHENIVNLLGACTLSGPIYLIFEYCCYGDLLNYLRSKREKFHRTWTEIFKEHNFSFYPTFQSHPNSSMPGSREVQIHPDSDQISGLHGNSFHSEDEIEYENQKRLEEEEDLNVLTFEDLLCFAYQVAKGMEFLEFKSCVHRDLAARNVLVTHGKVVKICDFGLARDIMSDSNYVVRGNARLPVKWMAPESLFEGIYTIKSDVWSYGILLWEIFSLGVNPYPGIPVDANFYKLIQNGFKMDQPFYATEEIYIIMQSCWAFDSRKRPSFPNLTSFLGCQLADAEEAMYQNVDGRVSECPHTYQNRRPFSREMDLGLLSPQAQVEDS
Briefly: Reaction Biology NanoBRET target engagement assay, FLT3. The settings on record: transfected HEK-293 cells. It is filed as cell-based.
From the text: as §1, §2, §3, §4, §5, §6, §7
3. […]

For the molecule `CC(O)(c1cn2c(-c3cccc(N[C@H]4CNC[C@@H]4F)n3)cnc2cn1)C(F)(F)F` (single isomer, unassigned) [Compound 77], the 50% inhibitory concentration (IC50) was less than 0.5 nM at IRAK4 and 277 nM against FLT3.
On FLT3, `CC(O)(c1cn2c(-c3cccc(N[C@H]4CNC[C@@H]4F)n3)cnc2cn1)C(F)(F)F` (single isomer, unassigned) [Compound 78] yielded an IC50 of 40 nM.
On to `CC(O)(c1cn2c(-c3cccc(N[C@H]4CNCC[C@@H]4F)n3)cnc2cn1)C(F)(F)F` (single isomer, unassigned) [Compound 80], for which the values for the half-inhibitory concentration (IC50) against IRAK4 and at FLT3 were less than 0.5 nM and 94 nM, respectively.
Taken in the same sequence, the figures for `CC(O)(c1cn2c(-c3cccc(N[C@@H]4CCCNC4)n3)cnc2cn1)C(F)(F)F` (single isomer, unassigned) [Compound 81] were less than 0.5 nM and 15 nM.
Consider `CC(O)(c1cn2c(-c3cccc(N[C@H]4CNCC[C@@H]4F)n3)cnc2cn1)C(F)(F)F` (single isomer, unassigned) [Compound 82], for which the IC50 on IRAK4 was less than 0.5 nM; on FLT3, 40 nM.
For the molecule `CC1(c2cn3c(-c4cccc(N[C@H]5CNC[C@@H]5F)n4)cnc3cn2)CC1` [Compound 1, N-((3S,4S)-4-fluoropyrrolidin-3-yl)-6-(6-(1-methylcyclopropyl)imidazo[1,2-a]pyrazin-3-yl)pyridin-2-amine], the half-maximal inhibitory concentration (IC50) is less than 0.5 nM on IRAK4 and 6 nM on FLT3.
Taken in the same sequence, the figures for `CC1(c2cn3c(-c4cccc(N[C@@H]5CCNC5)n4)cnc3cn2)CC1` [Compound 3, (R)-6-(6-(1-methylcyclopropyl)imidazo[1,2-a]pyrazin-3-yl)-N-(pyrrolidin-3-yl)pyridin-2-amine] were less than 0.5 nM and 3 nM.
Turning to `CC1(c2cn3c(-c4cccc(N[C@H]5CNCC56CC6)n4)cnc3cn2)CC1` [Compound 5, (R)-N-(6-(6-(1-methylcyclopropyl)imidazo[1,2-a]pyrazin-3-yl)pyridin-2-yl)-5-azaspiro[2.4]heptan-7-amine], the IC50 at IRAK4 and against FLT3 was less than 0.5 nM each time.
On to `FC(F)c1cn2c(-c3cccc(N[C@H]4CNC[C@@H]4F)n3)cnc2cn1` [Compound 16, 6-(6-(difluoromethyl)imidazo[1,2-a]pyrazin-3-yl)-N-((3S,4S)-4-fluoropyrrolidin-3-yl)pyridin-2-amine], for which the figures for the IC50 at IRAK4 and on FLT3 were less than 0.5 nM and 21 nM, respectively.
Consider `FC(F)c1cn2c(-c3cccc(N[C@H]4CNCC[C@@H]4F)n3)cnc2cn1` [Compound 25, 6-(6-(difluoromethyl)imidazo[1,2-a]pyrazin-3-yl)-N-((3S,4S)-4-fluoropiperidin-3-yl)pyridin-2-amine], for which the half-maximal inhibitory concentration (IC50) is less than 0.5 nM against IRAK4 and 6 nM on FLT3.
Regarding `CC(C)(O)c1cn2c(-c3cccc(N[C@H]4CNCC[C@@H]4F)n3)cnc2cn1` [Compound 31, 2-(3-(6-(((3S,4S)-4-fluoropiperidin-3-yl)amino)pyridin-2-yl)imidazo[1,2-a]pyrazin-6-yl)propan-2-ol], the half-inhibitory concentration (IC50) was less than 0.5 nM against IRAK4 and 136 nM against FLT3.
As to `CC(C)(O)c1cn2c(-c3nc(N[C@H]4CNC[C@@H]4F)c(F)cc3F)cnc2cn1` [Compound 33, 2-(3-(3,5-difluoro-6-(((3S,4S)-4-fluoropyrrolidin-3-yl)amino)pyridin-2-yl)imidazo[1,2-a]pyrazin-6-yl)propan-2-ol], the IC50 against IRAK4 is less than 0.5 nM; against FLT3 it was 1500 nM.
For the molecule `CC(C)(O)c1cn2c(-c3nc(N[C@@H]4CCCNC4)c(F)cc3F)cnc2cn1` [Compound 34, (R)-2-(3-(3,5-difluoro-6-(piperidin-3-ylamino)pyridin-2-yl)imidazo[1,2-a]pyrazin-6-yl)propan-2-ol], the results for the half-inhibitory concentration (IC50) at IRAK4 and at FLT3 were less than 0.5 nM and 177 nM, respectively.
As to `CC(C)(O)c1cn2c(-c3nc(N[C@H]4CNCC[C@@H]4F)c(F)cc3F)cnc2cn1` [Compound 35, 2-(3-(3,5-difluoro-6-(((3S,4S)-4-fluoropiperidin-3-yl)amino)pyridin-2-yl)imidazo[1,2-a]pyrazin-6-yl)propan-2-ol], the IC50 at IRAK4 was less than 0.5 nM; against FLT3 it was 216 nM.
Regarding `FC(F)(F)COc1cn2c(-c3cccc(N[C@@H]4CCNC4)n3)cnc2cn1` [Compound 38, (R)-N-(pyrrolidin-3-yl)-6-(6-(2,2,2-trifluoroethoxy)imidazo[1,2-a]pyrazin-3-yl)pyridin-2-amine], the IC50 at IRAK4 is less than 0.5 nM; at FLT3, 12 nM.
Turning to `Cn1cc(-c2cn3c(-c4cccc(N[C@@H]5CCCNC5)n4)cnc3cn2)cn1` [Compound 43, (R)-6-(6-(1-methyl-1H-pyrazol-4-yl)imidazo[1,2-a]pyrazin-3-yl)-N-(piperidin-3-yl)pyridin-2-amine], the values for the IC50 against IRAK4 and against FLT3 were 84 nM and 73 nM, respectively.
Take `F[C@H]1CNC[C@@H]1Nc1cccc(-c2cnc3cnc(C4CC4)cn23)n1` [Compound 50, 6-(6-cyclopropylimidazo[1,2-a]pyrazin-3-yl)-N-((3S,4S)-4-fluoropyrrolidin-3-yl)pyridin-2-amine]: the IC50 at IRAK4 is 1 nM; at FLT3, 10 nM.
Taken in the same sequence, the figures for `F[C@H]1CCNC[C@@H]1Nc1cccc(-c2cnc3cnc(C4CC4)cn23)n1` [Compound 51, 6-(6-cyclopropylimidazo[1,2-a]pyrazin-3-yl)-N-((3S,4S)-4-fluoropiperidin-3-yl)pyridin-2-amine] were 0.6 nM and 4 nM.
